Measurements published in patent US10364247B2, “Preparation and use of novel protein kinase inhibitors” (Ruijin Hospital Affiliated to Shanghai Jiao Tong University …, priority 2015, dated 2019).

Legend:
[1] = tested on: SK-MEL-5, SK-MEL-28, and SK-MEL-30 cell lines; assay: Melanoma cell proliferation; type: cell-based; details: SK-MEL-5, SK-MEL-28 (B-Raf V600E), SK-MEL-30 (N-Ras Q61K); FIG. 3
Experimental: The ability of IA-9 to treat melanoma was tested using the SK-MEL-5, SK-MEL-28, and SK-MEL-30 cell lines. SK-MEL-5 and SK-MEL-28 express mutant B-Raf (V600E) and wildtype N-Ras. SK-MEL-30 expresses wildtype B-Raf and mutant N-Ras (Q61K). Cell proliferation was tested using methods described herein.

KU812 cells = assay: Human leukemia cell proliferation (CellTiter Glo); type: cell-based; details: compared to Imatinib and Ponatinib; FIG. 1
Experimental: Comparison of 50% inhibition concentration (IC50) of IA-9, imatinib and Ponatinib in KU812 leukemia cells.
IA-9 is a strong kinase inhibitor among the compounds of the invention. The activity of IA-9 to inhibit human leukemia cell proliferation was tested using CellTiter Glo Assay (Promega).

BaF3-BCR/ABL = molecular target: T1, BaF3-BCR/ABL (Homo sapiens, UniProt P00519); assay: Antiproliferative activity, kinase-dependent Ba/F3 cells (MTT/MTS); type: cell-based, murine; details: 48 hours, cell viability, read-out: BCR/ABL IC50
T1 construct: fused on or other part: P11274 (Breakpoint cluster region protein)
Outline: (§1)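 Murine Ba/F3 cells transformed with BCR/ABL (p210) or BCR/ABL-T315I, grown in RPMI/10% FCS without IL3, were seeded at 20,000 cells/well. Viability was read by MTT/MTS. IC50 is the concentration reducing viability to 50% of DMSO vehicle control.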

BaF3-BCR/ABL-T315I = molecular target: T2, BaF3-BCR/ABL-T315I (Homo sapiens, UniProt P00519, T315I, cells depend on it); assay: as above; type: cell-based, murine; details: 48 hours, cell viability, read-out: BCR/ABL T315I IC50
T2 construct: fused on or other part: P11274 (Breakpoint cluster region protein)
Outline: as §1

[2] = tested on: NCI-H1975 and HCC827 cell lines; assay: Lung adenocarcinoma cell proliferation; type: cell-based; details: FIG. 4
Experimental: The ability of IA-9 to treat lung adenocarcinoma was tested using the NCI-H1975 and HCC827 cell lines. Both cell lines harbor at least EGFR and Ras mutations and are multi-drug resistant. Cell proliferation was tested using methods described herein.

[3] = tested on: Ba/F3 cells expressing FLT3-ITD oncoprotein (ITD); assay: Proliferation of FLT3-ITD expressing Ba/F3 cells; type: cell-based, murine
Experimental: A. Dose response curve of IA-9 in treating ITD cells is presented. ITD cells in the presence (ITD+) or absence of IL-3 (ITD−) were treated with 10 μM and 3-fold dilution series of IA-9. B. Dose response curve of IA-9 in treating MV-4-11 cells is shown. […].

FLT3 = FLT3 (Homo sapiens, UniProt P36888); assay: KINOMEscan competition binding
Chain of FLT3 (P36888 27-993): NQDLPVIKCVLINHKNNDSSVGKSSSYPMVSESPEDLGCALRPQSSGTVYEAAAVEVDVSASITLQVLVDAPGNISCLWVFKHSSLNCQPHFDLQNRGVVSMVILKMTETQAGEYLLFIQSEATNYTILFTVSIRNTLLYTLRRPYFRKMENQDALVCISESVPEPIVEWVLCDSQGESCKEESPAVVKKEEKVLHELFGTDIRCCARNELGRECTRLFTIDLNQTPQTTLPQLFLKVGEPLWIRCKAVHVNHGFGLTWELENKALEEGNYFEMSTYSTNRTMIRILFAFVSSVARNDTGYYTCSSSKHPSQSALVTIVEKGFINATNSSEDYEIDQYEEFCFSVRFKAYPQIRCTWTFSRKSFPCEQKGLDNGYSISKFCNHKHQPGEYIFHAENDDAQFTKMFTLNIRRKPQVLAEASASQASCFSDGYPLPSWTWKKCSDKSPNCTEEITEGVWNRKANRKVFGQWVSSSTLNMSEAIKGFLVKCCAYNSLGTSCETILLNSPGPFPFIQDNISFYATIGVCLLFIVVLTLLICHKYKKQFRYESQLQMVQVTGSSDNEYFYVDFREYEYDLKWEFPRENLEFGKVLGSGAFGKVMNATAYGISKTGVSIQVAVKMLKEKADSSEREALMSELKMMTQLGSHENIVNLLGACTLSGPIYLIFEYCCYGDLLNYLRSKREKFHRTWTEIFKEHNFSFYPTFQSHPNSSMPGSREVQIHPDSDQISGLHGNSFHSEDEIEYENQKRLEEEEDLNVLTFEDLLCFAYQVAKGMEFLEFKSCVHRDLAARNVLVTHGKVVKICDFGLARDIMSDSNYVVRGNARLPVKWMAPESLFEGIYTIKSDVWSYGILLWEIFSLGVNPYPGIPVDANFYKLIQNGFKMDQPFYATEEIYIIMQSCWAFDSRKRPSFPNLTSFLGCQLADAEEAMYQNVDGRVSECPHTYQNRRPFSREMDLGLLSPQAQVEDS
Experimental: KINOMEscan™ is based on a competition binding assay that quantitatively measures the ability of a compound to compete with an immobilized, active-site directed ligand (Fabian et al. (2005) Nat. Biotechnol. 23, 329; Karaman et al. (2008) Nat. Biotechnol. 26, 127). The compound was screened at 10 μM, and results for primary screen binding interactions are reported as ‘% Ctrl’, where lower numbers indicate stronger hits. The results for kinases targets with a % Ctrl less than 30 can be seen in Table 2.
FLT3 is a receptor tyrosine kinase; its activating mutations are found in 30% human acute myeloid leukemia (AML)^5.

BaF3-EML4-ALK = molecular target: T3, BaF3-EML4-ALK (Homo sapiens, UniProt Q9UM73); assay: Antiproliferative activity, kinase-dependent Ba/F3 cells (MTT/MTS); type: cell-based, murine; details: 48 hours, cell viability, read-out: EML4-ALK IC50
T3 construct: fused on or other part: Q9HC35 (Echinoderm microtubule-associated protein-like 4)
T3 sequence (Q9UM73 whole entry, change not shown, the tested form may be a part): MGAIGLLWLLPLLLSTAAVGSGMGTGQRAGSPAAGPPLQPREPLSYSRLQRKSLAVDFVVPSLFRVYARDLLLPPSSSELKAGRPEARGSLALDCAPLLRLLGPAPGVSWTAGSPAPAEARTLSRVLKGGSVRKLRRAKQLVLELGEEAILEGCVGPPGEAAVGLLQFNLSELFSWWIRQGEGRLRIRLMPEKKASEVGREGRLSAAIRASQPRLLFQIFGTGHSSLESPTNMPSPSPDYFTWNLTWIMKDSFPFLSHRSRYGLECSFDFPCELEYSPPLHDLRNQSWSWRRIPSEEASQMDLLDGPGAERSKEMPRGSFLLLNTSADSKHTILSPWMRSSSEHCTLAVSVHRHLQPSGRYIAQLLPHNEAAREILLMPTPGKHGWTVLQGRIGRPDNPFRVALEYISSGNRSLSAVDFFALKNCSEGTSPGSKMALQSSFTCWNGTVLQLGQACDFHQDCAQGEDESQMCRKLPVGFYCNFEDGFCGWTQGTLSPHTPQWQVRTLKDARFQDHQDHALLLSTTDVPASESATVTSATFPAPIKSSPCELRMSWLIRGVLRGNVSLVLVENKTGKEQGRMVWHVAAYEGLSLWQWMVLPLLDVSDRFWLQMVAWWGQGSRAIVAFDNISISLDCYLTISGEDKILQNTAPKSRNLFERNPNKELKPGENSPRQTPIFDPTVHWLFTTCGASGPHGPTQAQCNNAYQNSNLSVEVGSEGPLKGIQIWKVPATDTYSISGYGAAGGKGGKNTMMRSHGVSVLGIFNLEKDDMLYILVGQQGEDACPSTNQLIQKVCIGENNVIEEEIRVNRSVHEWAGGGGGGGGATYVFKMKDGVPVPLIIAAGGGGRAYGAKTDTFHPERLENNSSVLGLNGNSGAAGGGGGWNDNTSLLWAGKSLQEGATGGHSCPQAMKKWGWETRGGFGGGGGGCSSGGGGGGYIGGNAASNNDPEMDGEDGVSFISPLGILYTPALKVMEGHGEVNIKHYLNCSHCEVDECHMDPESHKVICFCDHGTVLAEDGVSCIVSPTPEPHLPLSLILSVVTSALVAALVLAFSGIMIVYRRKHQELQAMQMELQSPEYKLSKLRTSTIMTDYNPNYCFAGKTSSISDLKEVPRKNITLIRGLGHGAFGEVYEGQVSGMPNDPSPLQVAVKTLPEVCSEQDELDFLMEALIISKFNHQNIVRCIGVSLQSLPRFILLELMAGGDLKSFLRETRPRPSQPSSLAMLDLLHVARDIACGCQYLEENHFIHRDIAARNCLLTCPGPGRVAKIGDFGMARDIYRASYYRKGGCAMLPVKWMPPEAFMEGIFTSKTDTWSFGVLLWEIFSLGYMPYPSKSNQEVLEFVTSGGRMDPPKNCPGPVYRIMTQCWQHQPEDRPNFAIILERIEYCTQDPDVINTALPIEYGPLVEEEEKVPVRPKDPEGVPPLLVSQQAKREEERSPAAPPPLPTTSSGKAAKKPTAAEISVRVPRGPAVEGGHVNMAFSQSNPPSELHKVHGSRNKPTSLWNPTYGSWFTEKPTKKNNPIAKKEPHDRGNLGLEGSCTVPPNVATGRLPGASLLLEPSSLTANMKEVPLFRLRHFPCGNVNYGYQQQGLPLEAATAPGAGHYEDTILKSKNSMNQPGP
Outline: (§2)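 Murine Ba/F3 cells transformed with the indicated TEL- or EML4-fusion kinases, seeded at 20,000 cells/well in RPMI/10% FCS. Viability by MTT/MTS; IC50 as concentration reducing viability to 50% of DMSO vehicle control.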

BaF3-TEL-INSR = molecular target: T4, BaF3-TEL-INSR (Homo sapiens, UniProt P06213); assay: as above; type: cell-based, murine; details: 48 hours, cell viability, read-out: Tel-INSR IC50
T4 construct: fused on or other part: P41212 (Transcription factor ETV6)
T4 sequence (P06213 whole entry, stated change not applied, the tested form may be a part): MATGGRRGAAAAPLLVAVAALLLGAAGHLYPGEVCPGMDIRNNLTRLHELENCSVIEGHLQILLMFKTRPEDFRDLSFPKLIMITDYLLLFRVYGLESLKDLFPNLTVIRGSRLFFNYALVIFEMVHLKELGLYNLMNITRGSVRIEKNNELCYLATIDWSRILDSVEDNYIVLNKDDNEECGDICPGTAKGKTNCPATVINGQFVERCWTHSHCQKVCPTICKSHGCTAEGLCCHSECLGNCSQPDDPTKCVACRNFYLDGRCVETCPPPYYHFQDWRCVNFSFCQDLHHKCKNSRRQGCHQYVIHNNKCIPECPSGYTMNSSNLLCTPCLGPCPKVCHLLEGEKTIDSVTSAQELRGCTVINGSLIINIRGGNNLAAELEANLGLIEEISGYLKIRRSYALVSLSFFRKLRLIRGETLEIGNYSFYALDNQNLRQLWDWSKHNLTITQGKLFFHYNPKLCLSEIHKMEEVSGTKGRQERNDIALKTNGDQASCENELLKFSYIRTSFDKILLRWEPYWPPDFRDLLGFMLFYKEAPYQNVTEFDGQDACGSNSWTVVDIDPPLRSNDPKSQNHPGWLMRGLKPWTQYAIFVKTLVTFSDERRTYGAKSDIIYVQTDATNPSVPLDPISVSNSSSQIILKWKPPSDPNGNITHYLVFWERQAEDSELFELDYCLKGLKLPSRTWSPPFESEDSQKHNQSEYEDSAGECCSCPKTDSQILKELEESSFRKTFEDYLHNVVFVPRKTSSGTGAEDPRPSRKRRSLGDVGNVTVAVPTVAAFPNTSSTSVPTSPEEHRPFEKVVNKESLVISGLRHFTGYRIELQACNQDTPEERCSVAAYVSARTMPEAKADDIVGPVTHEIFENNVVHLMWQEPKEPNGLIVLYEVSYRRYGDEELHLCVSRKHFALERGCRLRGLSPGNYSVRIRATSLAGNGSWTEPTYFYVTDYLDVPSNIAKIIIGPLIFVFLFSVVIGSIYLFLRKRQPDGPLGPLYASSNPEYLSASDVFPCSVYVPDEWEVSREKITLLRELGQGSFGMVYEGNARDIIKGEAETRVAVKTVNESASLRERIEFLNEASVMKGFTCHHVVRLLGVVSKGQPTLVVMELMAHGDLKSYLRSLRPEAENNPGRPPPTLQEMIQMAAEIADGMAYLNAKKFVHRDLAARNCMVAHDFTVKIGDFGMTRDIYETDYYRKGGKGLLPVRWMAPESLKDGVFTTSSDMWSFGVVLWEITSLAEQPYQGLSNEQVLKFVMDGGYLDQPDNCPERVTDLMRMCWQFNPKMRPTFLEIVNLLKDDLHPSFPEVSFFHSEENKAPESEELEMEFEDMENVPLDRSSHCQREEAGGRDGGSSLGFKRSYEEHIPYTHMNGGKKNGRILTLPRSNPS
Outline: as §2

BaF3-TEL-TIE1 = molecular target: T5, BaF3-TEL-TIE1 (Homo sapiens, UniProt P35590); assay: as above; type: cell-based, murine; details: 48 hours, cell viability, read-out: tel-TIE1 IC50
T5 construct: fused on or other part: P41212 (Transcription factor ETV6)
Outline: as §2

BaF3-TEL-HCK = molecular target: T6, BaF3-TEL-HCK (Homo sapiens, UniProt P08631); assay: as above; type: cell-based, murine; details: 48 hours, cell viability, read-out: Tel-HCK IC50
T6 construct: fused on or other part: P41212 (Transcription factor ETV6)
T6 sequence (P08631 whole entry, change not shown, the tested form may be a part): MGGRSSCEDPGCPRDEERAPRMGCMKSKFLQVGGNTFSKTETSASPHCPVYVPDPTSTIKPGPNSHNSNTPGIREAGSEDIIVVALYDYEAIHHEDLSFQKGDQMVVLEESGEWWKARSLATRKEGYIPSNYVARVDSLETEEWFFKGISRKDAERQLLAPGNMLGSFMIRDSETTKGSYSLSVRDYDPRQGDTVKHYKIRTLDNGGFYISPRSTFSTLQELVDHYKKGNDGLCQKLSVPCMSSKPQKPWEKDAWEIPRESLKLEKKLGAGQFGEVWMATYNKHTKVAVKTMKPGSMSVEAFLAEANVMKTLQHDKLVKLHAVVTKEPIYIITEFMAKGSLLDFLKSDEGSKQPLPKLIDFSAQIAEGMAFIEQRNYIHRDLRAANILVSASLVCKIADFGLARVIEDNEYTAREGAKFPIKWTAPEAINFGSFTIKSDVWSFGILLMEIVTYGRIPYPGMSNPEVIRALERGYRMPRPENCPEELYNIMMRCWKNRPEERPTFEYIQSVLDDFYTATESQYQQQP
Outline: as §2

BaF3-TEL-LYN = molecular target: T7, BaF3-TEL-LYN (Homo sapiens, UniProt P07948); assay: as above; type: cell-based, murine; details: 48 hours, cell viability, read-out: tel-LYN IC50
T7 construct: fused on or other part: P41212 (Transcription factor ETV6)
T7 sequence (P07948 whole entry, change not shown, the tested form may be a part): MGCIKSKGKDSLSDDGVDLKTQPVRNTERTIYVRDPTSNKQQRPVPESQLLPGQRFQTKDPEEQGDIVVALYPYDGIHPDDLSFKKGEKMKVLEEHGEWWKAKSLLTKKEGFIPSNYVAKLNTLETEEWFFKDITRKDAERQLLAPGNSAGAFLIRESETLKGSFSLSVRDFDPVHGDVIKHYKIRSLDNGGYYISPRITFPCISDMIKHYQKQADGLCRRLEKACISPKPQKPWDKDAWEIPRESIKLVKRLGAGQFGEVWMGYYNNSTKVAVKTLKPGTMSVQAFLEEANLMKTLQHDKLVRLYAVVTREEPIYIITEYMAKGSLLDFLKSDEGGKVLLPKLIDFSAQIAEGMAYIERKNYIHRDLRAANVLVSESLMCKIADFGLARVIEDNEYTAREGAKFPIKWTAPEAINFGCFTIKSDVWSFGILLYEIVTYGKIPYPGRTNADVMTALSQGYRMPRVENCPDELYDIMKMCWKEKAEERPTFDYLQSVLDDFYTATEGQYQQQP
Outline: as §2

Compound: Cc1ccc(Nc2ncc3c(n2)N(C)CN(c2cc(NC(=O)c4cccc(C(F)(F)F)c4)ccc2C)C3)cn1 [IA-9, N-(4-methyl-3-(1-methyl-7-((6-methylpyridin-3-yl)amino)-1,4-dihydropyrimido[4,5-d]pyrimidin-3(2H)-yl)phenyl)-3-(trifluoromethyl)benzamide]
- reduction of proliferation of melanoma cells [1]: reduce the proliferation of melanoma cells
- inhibition of proliferation of KU812 cells (KU812 cells): stronger ability to inhibit proliferation of KU812 cells
- GI50 (BaF3-BCR/ABL): 5 nM
- GI50 (BaF3-BCR/ABL-T315I): 651 nM
- reduction of proliferation of lung adenocarcinoma cells [2]: reduce the proliferation of lung adenocarcinoma cells
- potential therapeutic window (ITD cells with vs without IL-3) ([3]; FLT3-ITD transformed cells, IL-3 rescue): 80 fold
- inhibition of proliferation/viability of ITD cells ([3]; absence of IL-3, FIG. 5A): effectively inhibits the proliferation/viability of ITD cells
- proliferation/survival of ITD cells on addition of IL-3 ([3]; presence of IL-3, FIG. 5A): largely rescues the proliferation/survival of the ITD cells
- remaining binding at 10 µM (FLT3; FLT3, 10 μM, read-out: Percent Control): 0.2%
- binding to FLT3 kinase (in words) (FLT3; KINOMEscan data): bind(s) FLT3 kinase strongly
- GI50 (BaF3-EML4-ALK): 1470 nM
- GI50 (BaF3-TEL-INSR): 869 nM
- GI50 (BaF3-TEL-TIE1): 519 nM
- GI50 (BaF3-TEL-HCK): 639 nM
- GI50 (BaF3-TEL-LYN): 225 nM
